PubChem BioAssay AID743142 (Broad Institute, 2013)
Results filed as inconclusive are left out. The source made the active and inactive calls.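 How the source made its calls: active means sample lowering the cell viability signal whose fitted half-effect dose is at or below its top tested dose; inconclusive means flat fit with 30 to 70 percent loss, or poor fit; inactive means the rest, including effects in the wrong direction.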

Key:
[1] = HEK293 cell cytotoxicity, dose response, cytotoxicity control, ATP luminescence, dry powder, Set6 (AID 743142); settings: HEK293T viability, ATP luminescence (CellTiter-Glo), 72 h
[2] = system: HEK293T viability, ATP luminescence (CellTiter-Glo), 72 h; experiment: as above

| Compound | activity change, negative = cytotoxicity ([1]; at 26 µM (top of the series)) | further results |
| --- | --- | --- |
| COc1cc(C(=O)NCCC(=O)NC2CCCc3ccccc32)cc(OC)c1OC (stereo unspecified) | -40.5% (inactive) |  |
| CC(NC(=O)CCNC(=O)c1ccc(Cl)cc1)c1ccc(F)cc1 (stereo unspecified) |  | activity change, negative = cytotoxicity ([1]; at 12 µM (top of the series)): 41.6% (inactive) |
| CC(C)(C)OC(=O)NCCC(=O)N[C@@H]1CCCc2ccccc21 | -2.95% (inactive) |  |
| COc1ccccc1C(C)NC(=O)CCNC(=O)c1ccc(Cl)cc1 (stereo unspecified) | -9.14% (inactive) |  |
| CC(CC(=O)N(C)C1CCCc2ccccc21)NC(=O)c1ccccc1 (stereo unspecified) | -30% (inactive) |  |
| O=C(CNC(=O)c1ccc(C(F)(F)F)cc1)N[C@@H]1CCCc2ccccc21 | -8.54% (inactive) |  |
| O=C(CCNC(=O)c1ccccc1Cl)NC1CCCc2ccccc21 (stereo unspecified) | 10.9% (inactive) |  |
| CN(C(=O)CCNC(=O)c1ccc(F)cc1F)C1CCCc2ccccc21 (stereo unspecified) | 7.5% (inactive) |  |
| NCCC(=O)N[C@@H]1CCCc2ccccc21 | 27.3% (inactive) |  |
| O=C(CNC(=O)c1ccc(Cl)cc1)N[C@@H]1CCCc2ccccc21 | -4.76% (inactive) |  |
| O=C(CCCNC(=O)c1ccc(OC(F)(F)F)cc1)N[C@@H]1CCCc2ccccc21 | 48.5% (inactive) |  |
| O=C(CCNC(=O)c1ccccc1)N[C@@H]1CCCc2ccccc21 | -39.6% (inactive) |  |
| O=C(CCNC(=O)c1ccc(Cl)cc1)N[C@H]1CCCc2ccccc21 | -23.6% (inactive) |  |
| O=C(CCNC(=O)c1ccc(Cl)cc1)NC1CCCCC1 | 13% (inactive) |  |
| O=C(NC1CCOc2ccccc21)C1CCCN(C(=O)c2ccc(Cl)cc2)C1 (stereo unspecified) | -5.89% (inactive) |  |
| CC(NC(=O)CCNC(=O)c1ccc(Cl)cc1)c1ccc2c(c1)OCO2 (stereo unspecified) | 21.1% (inactive) |  |

| Compound | activity change, negative = cytotoxicity ([1]; at 26 µM (top of the series)) | further results |
| --- | --- | --- |
| CC(C)(C)OC(=O)NCCC(=O)N[C@H]1CCCc2ccccc21 | -17.3% (inactive) |  |
| CC(=O)NCCC(=O)N[C@@H]1CCCc2ccccc21 | 10.6% (inactive) |  |
| Cc1cccc(C(=O)NCCC(=O)NC2CCCc3ccccc32)c1 (stereo unspecified) | -15.8% (inactive) |  |
| COc1ccccc1C(=O)NCCC(=O)NC1CCCc2ccccc21 (stereo unspecified) | -2.09% (inactive) |  |
| O=C(CCNC(=O)c1ccc(Cl)cc1)NC1CCCc2ccccc21 (stereo unspecified) |  | AC50 [2]: 7.73 µM |
| O=C(CNC(=O)c1ccc(Cl)c(Cl)c1)N[C@@H]1CCCc2ccccc21 | -24.4% (inactive) |  |
| CC(NC(=O)C1CCCN(C(=O)c2ccc(Cl)cc2)C1)c1ccccc1 (stereo unspecified) | 64.4% (inactive) |  |
| C[C@@H](NC(=O)CCNC(=O)c1ccc(Cl)cc1)c1ccccc1 | 19.9% (inactive) |  |
| O=C(CCCNC(=O)c1ccc(Cl)cc1)N[C@@H]1CCCc2ccccc21 | 2.4% (inactive) |  |
| O=C(NC1CCc2ccccc21)C1CCCN(C(=O)c2ccc(Cl)cc2)C1 (stereo unspecified) | -34.8% (inactive) |  |
| CC(CC(=O)NC1CCCc2ccccc21)NC(=O)c1ccccc1 (stereo unspecified) | -38.5% (inactive) |  |
| O=C(CCCNC(=O)c1ccc(Cl)c(Cl)c1)N[C@@H]1CCCc2ccccc21 | 8.38% (inactive) |  |
| O=C(CNC(=O)c1ccc(OC(F)(F)F)cc1)N[C@@H]1CCCc2ccccc21 | 1.28% (inactive) |  |
| CC(c1ccccc1)N(C)C(=O)CCNC(=O)c1ccc(Cl)cc1 (stereo unspecified) | -5.44% (inactive) |  |
| O=C(CCCNC(=O)c1ccc(C(F)(F)F)cc1)N[C@@H]1CCCc2ccccc21 | 49.1% (inactive) |  |
